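Interpolation was linear, between the two tested concentrations surrounding the appropriate level; five concentrations were tested over 48 hours in 96-well plates. TGI is the concentration that stops growth completely.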
Experiments:
Assay in all cases: DTP human tumour cell line panel, 48 h
MALME-3M melanoma = system: MALME-3M melanoma
ACHN renal = system: ACHN renal
LOX IMVI melanoma = system: LOX IMVI melanoma
U251 CNS = system: U251 CNS
SK-OV-3 ovarian = system: SK-OV-3 ovarian
OVCAR-4 ovarian = system: OVCAR-4 ovarian
NCI-H460 lung = system: NCI-H460 lung
SF-268 CNS = system: SF-268 CNS
TK-10 renal = system: TK-10 renal
SN12C renal = system: SN12C renal
NCI-H522 lung = system: NCI-H522 lung
NCI-H226 lung = system: NCI-H226 lung
KM12 colon = system: KM12 colon
SR leukemia = system: SR leukemia
SNB-75 CNS = system: SNB-75 CNS
786-0 renal = system: 786-0 renal
NCI/ADR-RES ovarian = system: NCI/ADR-RES ovarian
CCRF-CEM leukemia = system: CCRF-CEM leukemia

CC(C)/C(Cl)=N\OC(=O)Nc1cccc(F)c1
TGI (MALME-3M melanoma): 14.4 µM | TGI (ACHN renal): 27.8 µM | TGI (LOX IMVI melanoma): 5.31 µM | TGI (U251 CNS): 33.4 µM | TGI (SK-OV-3 ovarian): 35.2 µM | TGI (OVCAR-4 ovarian): 25.4 µM | TGI (NCI-H460 lung): > 66.8 µM | TGI (SF-268 CNS): 58 µM | TGI (TK-10 renal): 28.1 µM | TGI (SN12C renal): 32.2 µM | TGI (NCI-H522 lung): 2.98 µM | TGI (NCI-H226 lung): 33.5 µM | TGI (KM12 colon): 16.7 µM | TGI (SR leukemia): 6.6 µM | TGI (SNB-75 CNS): 55.6 µM | TGI (786-0 renal): 29.6 µM | TGI (NCI/ADR-RES ovarian): 37 µM | TGI (CCRF-CEM leukemia): 5.07 µM

CC(C)CNC(=O)CCc1cccc2c1oc1c(CCN)cccc12
TGI (MALME-3M melanoma): 32 µM | TGI (ACHN renal): 25.8 µM | TGI (LOX IMVI melanoma): 27.9 µM | TGI (U251 CNS): 18.9 µM | TGI (SK-OV-3 ovarian): 31.6 µM | TGI (OVCAR-4 ovarian): 34 µM | TGI (NCI-H460 lung): 36.9 µM | TGI (SF-268 CNS): 31.2 µM | TGI (SN12C renal): 32.2 µM | TGI (NCI-H522 lung): 29.6 µM | TGI (NCI-H226 lung): 33.6 µM | TGI (KM12 colon): 28.4 µM | TGI (SR leukemia): 29 µM | TGI (SNB-75 CNS): 20.1 µM | TGI (786-0 renal): 24.9 µM | TGI (NCI/ADR-RES ovarian): 40.3 µM | TGI (CCRF-CEM leukemia): 17.6 µM

C/C=C/c1c(O)c(=O)c2c(OC)cc(OC)c3c4c(OC)cc(OC)c5c(=O)c(O)c(/C=C/C)c(c1c23)c54
TGI (MALME-3M melanoma): 19.6 µM | TGI (ACHN renal): 13.8 µM | TGI (LOX IMVI melanoma): 57.4 µM | TGI (U251 CNS): 47.1 µM | TGI (SK-OV-3 ovarian): > 100 µM | TGI (OVCAR-4 ovarian): 29.5 µM | TGI (NCI-H460 lung): 44.3 µM | TGI (SF-268 CNS): 24.6 µM | TGI (SN12C renal): 41.8 µM | TGI (NCI-H522 lung): 16.9 µM | TGI (NCI-H226 lung): 15.8 µM | TGI (KM12 colon): 31.6 µM | TGI (SR leukemia): > 100 µM | TGI (SNB-75 CNS): 28.7 µM | TGI (786-0 renal): 38.2 µM | TGI (NCI/ADR-RES ovarian): 34 µM | TGI (CCRF-CEM leukemia): > 100 µM

COC(OC)C1OC(CO)C(n2cc(C)c(=O)[nH]c2=O)C1O (stereo not given)
TGI (MALME-3M melanoma): > 100 µM | TGI (ACHN renal): > 100 µM | TGI (LOX IMVI melanoma): > 100 µM | TGI (U251 CNS): > 100 µM | TGI (SK-OV-3 ovarian): > 100 µM | TGI (OVCAR-4 ovarian): > 100 µM | TGI (NCI-H460 lung): > 100 µM | TGI (SF-268 CNS): > 100 µM | TGI (TK-10 renal): > 100 µM | TGI (SN12C renal): > 100 µM | TGI (NCI-H522 lung): > 100 µM | TGI (NCI-H226 lung): > 100 µM | TGI (KM12 colon): > 100 µM | TGI (SR leukemia): > 100 µM | TGI (SNB-75 CNS): > 100 µM | TGI (786-0 renal): > 100 µM | TGI (NCI/ADR-RES ovarian): > 100 µM | TGI (CCRF-CEM leukemia): > 100 µM

N#Cc1c(-c2ccc(Cl)cc2)cc(-c2ccc(Nc3ccnc4cc(C(F)(F)F)ccc34)cc2)[nH]c1=O
TGI (MALME-3M melanoma): > 100 µM | TGI (ACHN renal): > 100 µM | TGI (LOX IMVI melanoma): > 23.5 µM | TGI (U251 CNS): > 100 µM | TGI (SK-OV-3 ovarian): 73.1 µM | TGI (OVCAR-4 ovarian): 24.2 µM | TGI (NCI-H460 lung): > 100 µM | TGI (SF-268 CNS): > 100 µM | TGI (TK-10 renal): 63.2 µM | TGI (SN12C renal): > 100 µM | TGI (NCI-H522 lung): > 100 µM | TGI (NCI-H226 lung): > 100 µM | TGI (KM12 colon): > 100 µM | TGI (SR leukemia): 8.93 µM | TGI (SNB-75 CNS): > 50 µM | TGI (786-0 renal): 24.9 µM | TGI (NCI/ADR-RES ovarian): > 100 µM | TGI (CCRF-CEM leukemia): 11 µM

COc1ccc(NC(=O)CC(=O)N2N=C(N3CCCCC3)CC2c2ccccc2)cc1 (stereo not given)
TGI (MALME-3M melanoma): > 100 µM | TGI (ACHN renal): > 100 µM | TGI (LOX IMVI melanoma): > 100 µM | TGI (U251 CNS): > 100 µM | TGI (OVCAR-4 ovarian): > 100 µM | TGI (NCI-H460 lung): > 100 µM | TGI (SF-268 CNS): > 100 µM | TGI (TK-10 renal): > 100 µM | TGI (SN12C renal): > 100 µM | TGI (NCI-H522 lung): > 100 µM | TGI (NCI-H226 lung): > 100 µM | TGI (KM12 colon): > 100 µM | TGI (SR leukemia): > 100 µM | TGI (SNB-75 CNS): > 100 µM | TGI (786-0 renal): > 100 µM | TGI (NCI/ADR-RES ovarian): > 100 µM | TGI (CCRF-CEM leukemia): > 100 µM

COC(=O)[C@@H]1CN(C(=O)c2ccccc2)C(=O)N1
TGI (MALME-3M melanoma): > 100 µM | TGI (ACHN renal): > 100 µM | TGI (LOX IMVI melanoma): > 100 µM | TGI (U251 CNS): > 100 µM | TGI (OVCAR-4 ovarian): > 100 µM | TGI (NCI-H460 lung): > 100 µM | TGI (SF-268 CNS): > 100 µM | TGI (TK-10 renal): > 100 µM | TGI (SN12C renal): > 100 µM | TGI (NCI-H522 lung): > 100 µM | TGI (NCI-H226 lung): > 100 µM | TGI (KM12 colon): > 100 µM | TGI (SR leukemia): > 100 µM | TGI (SNB-75 CNS): > 100 µM | TGI (786-0 renal): > 100 µM | TGI (NCI/ADR-RES ovarian): > 100 µM | TGI (CCRF-CEM leukemia): > 100 µM

O=c1cc(-c2ccccc2)[nH]c2cc(F)c(F)cc12
TGI (MALME-3M melanoma): > 100 µM | TGI (ACHN renal): > 35.5 µM | TGI (LOX IMVI melanoma): > 100 µM | TGI (U251 CNS): > 58.6 µM | TGI (SK-OV-3 ovarian): > 56.1 µM | TGI (OVCAR-4 ovarian): > 100 µM | TGI (NCI-H460 lung): > 100 µM | TGI (SF-268 CNS): > 20.8 µM | TGI (TK-10 renal): > 100 µM | TGI (SN12C renal): > 100 µM | TGI (NCI-H522 lung): 10.8 µM | TGI (NCI-H226 lung): > 26.4 µM | TGI (KM12 colon): > 100 µM | TGI (SR leukemia): > 100 µM | TGI (SNB-75 CNS): 90 µM | TGI (786-0 renal): 4.18 µM | TGI (NCI/ADR-RES ovarian): > 19.6 µM | TGI (CCRF-CEM leukemia): > 100 µM

Cc1ccccc1C1CC(=O)CC(c2ccccc2C)C12C(=O)NC(=O)NC2=O (stereo not given)
TGI (MALME-3M melanoma): > 100 µM | TGI (ACHN renal): > 100 µM | TGI (LOX IMVI melanoma): > 100 µM | TGI (U251 CNS): > 100 µM | TGI (SK-OV-3 ovarian): > 100 µM | TGI (OVCAR-4 ovarian): > 100 µM | TGI (NCI-H460 lung): > 100 µM | TGI (SF-268 CNS): > 100 µM | TGI (TK-10 renal): > 100 µM | TGI (SN12C renal): > 100 µM | TGI (NCI-H522 lung): > 100 µM | TGI (NCI-H226 lung): > 100 µM | TGI (KM12 colon): > 100 µM | TGI (SR leukemia): > 100 µM | TGI (SNB-75 CNS): > 100 µM | TGI (786-0 renal): > 100 µM | TGI (NCI/ADR-RES ovarian): > 100 µM | TGI (CCRF-CEM leukemia): > 100 µM

CN(NC(=O)c1ccco1)C1=NCCN1
TGI (MALME-3M melanoma): > 100 µM | TGI (ACHN renal): > 100 µM | TGI (LOX IMVI melanoma): > 100 µM | TGI (U251 CNS): > 100 µM | TGI (SK-OV-3 ovarian): > 100 µM | TGI (OVCAR-4 ovarian): > 100 µM | TGI (NCI-H460 lung): > 100 µM | TGI (SF-268 CNS): > 100 µM | TGI (TK-10 renal): > 100 µM | TGI (SN12C renal): > 100 µM | TGI (NCI-H522 lung): > 100 µM | TGI (NCI-H226 lung): > 100 µM | TGI (KM12 colon): > 100 µM | TGI (SR leukemia): > 100 µM | TGI (SNB-75 CNS): > 100 µM | TGI (786-0 renal): > 100 µM | TGI (NCI/ADR-RES ovarian): > 100 µM | TGI (CCRF-CEM leukemia): > 100 µM

COc1ccc(N(C)S(=O)(=O)c2ccccc2)cc1
TGI (MALME-3M melanoma): > 100 µM | TGI (ACHN renal): > 100 µM | TGI (LOX IMVI melanoma): > 100 µM | TGI (U251 CNS): > 100 µM | TGI (SK-OV-3 ovarian): > 100 µM | TGI (OVCAR-4 ovarian): > 100 µM | TGI (NCI-H460 lung): > 100 µM | TGI (SF-268 CNS): > 100 µM | TGI (TK-10 renal): > 100 µM | TGI (SN12C renal): > 100 µM | TGI (NCI-H522 lung): > 100 µM | TGI (NCI-H226 lung): > 100 µM | TGI (KM12 colon): > 100 µM | TGI (SR leukemia): > 100 µM | TGI (SNB-75 CNS): > 100 µM | TGI (786-0 renal): > 100 µM | TGI (NCI/ADR-RES ovarian): > 100 µM | TGI (CCRF-CEM leukemia): > 100 µM

O=c1[nH]nc(Cc2ccccc2)n1/N=C/c1c(O)ccc2ccccc12
TGI (MALME-3M melanoma): 50.7 µM | TGI (ACHN renal): 84.5 µM | TGI (LOX IMVI melanoma): > 100 µM | TGI (U251 CNS): 38.6 µM | TGI (OVCAR-4 ovarian): 67.1 µM | TGI (SF-268 CNS): 90.6 µM | TGI (TK-10 renal): > 100 µM | TGI (SN12C renal): > 100 µM | TGI (NCI-H522 lung): 35.5 µM | TGI (NCI-H226 lung): 73.6 µM | TGI (KM12 colon): 81.9 µM | TGI (SR leukemia): 59.9 µM | TGI (SNB-75 CNS): 79.2 µM | TGI (786-0 renal): 30.3 µM | TGI (NCI/ADR-RES ovarian): 64.2 µM | TGI (CCRF-CEM leukemia): > 100 µM

Source: PubChem BioAssay (NCI)
